Where two headings read alike, the source gives them in different places.
How the values were obtained:
HCT116 WT cells = test: HCT116 WT cell line proliferation (CellTiter-Glo cell viability, 6 days); assay type: cell-based; conditions: HCT116 WT (parent) cells, 6 days of treatment, CellTiter-Glo cell viability, read-out: HCT-116 WT IC50
Method in brief: (§1)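 Isogenic HCT116 pair (parent and MTAP double-allele knockout) in RPMI 1640 + 10% FBS, exposed 6 days to compound: 8–9-point 1:3 dilutions from 1 or 10 μM top, or 22-point 1:2 dilutions from 10 or 50 μM top. CellTiter-Glo luminescence; IC50 from sigmoidal fit (Hill −1) or 4-parameter logistic.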

HCT116 MTAP null cells = test: HCT116 MTAP null cell line proliferation (CellTiter-Glo cell viability, 6 days); assay type: cell-based; conditions: HCT116 MTAP null cells, 6 days of treatment, CellTiter-Glo cell viability, read-out: HCT-116 MTAP null IC50
Method in brief: as §1

Row | SMILES | IC50 (HCT116 WT cells; Homo sapiens, HCT-116, 144 h) | IC50 (HCT116 MTAP null cells; HCT116-MTAP null, 144 h) | IC50 (HCT116 WT cells) | IC50 (HCT116 MTAP null cells)
1 | Nc1nc2ccc(C(=O)N3CCCC[C@@H]3c3ccc(C(F)(F)F)cc3)cc2c2ccsc12 (single isomer, unassigned) [Example 490] | 4.8 µM | > 1 µM |  | 
2 | CC(C)C[C@@H]1COC[C@H](c2ccc(C(F)(F)F)cc2)N1C(=O)c1cc2c3c(c(N)nc2cn1)COC3 (single isomer, unassigned) [Example 566] | > 10 µM | > 10 µM |  | 
3 | CC(C)C[C@H]1COC[C@@H](c2ccc(C(F)(F)F)cc2)N1C(=O)c1cc2c3c(c(N)nc2cn1)COC3 (single isomer, unassigned) [Example 567] | > 10 µM | 2.14 µM |  | 
4 | C[C@H]1OCc2c1c(N)nc1ccc(C(=O)N3CCOC[C@@H]3c3ccc(OC(F)(F)F)cc3)cc21 (single isomer, unassigned) [Example 568] | 1.79 µM | 0.036 µM |  | 
5 | C[C@@H]1OCc2c1c(N)nc1ccc(C(=O)N3CCOC[C@@H]3c3ccc(OC(F)(F)F)cc3)cc21 (single isomer, unassigned) [Example 569] | > 10 µM | > 1 µM |  | 
6 | Nc1nc2ccc(C(=O)N3CCOC[C@@H]3c3ccc(C(F)(F)F)cn3)cc2c2c1COC2 (single isomer, unassigned) [Example 570] | 8.77 µM | 0.221 µM |  | 
7 | Nc1nc2ccc(C(=O)N3CCOC[C@H]3c3ccc(C(F)(F)F)cn3)cc2c2c1COC2 (single isomer, unassigned) [Example 571] | > 10 µM | > 1 µM |  | 
8 | Nc1nc2ccc(C(=O)N3CCOC[C@H]3c3ccc(Br)cn3)cc2c2c1COC2 (single isomer, unassigned) [Example 572] | > 10 µM | > 1 µM |  | 
9 | Nc1nc2ccc(C(=O)N3CCOC[C@@H]3c3ccc(Br)cn3)cc2c2c1COC2 (single isomer, unassigned) [Example 573] | > 10 µM | 0.241 µM |  | 
10 | C[C@@H]1CN(C(=O)c2ccc3nc(N)c4c(c3c2)COC4)[C@H](c2ccc(C(F)(F)F)cn2)CO1 (single isomer, unassigned) [Example 574] | > 10 µM | > 1 µM |  | 
11 | C[C@H]1CN(C(=O)c2ccc3nc(N)c4c(c3c2)COC4)[C@@H](c2ccc(C(F)(F)F)cn2)CO1 (single isomer, unassigned) [Example 575] | 8.48 µM | 0.357 µM |  | 
12 | N#Cc1ccc([C@@H]2COCCN2C(=O)c2ccc3nc(N)c4c(c3c2)COC4)nc1 (single isomer, unassigned) [Example 576] | > 10 µM | > 1 µM |  | 
13 | N#Cc1ccc([C@H]2COCCN2C(=O)c2ccc3nc(N)c4c(c3c2)COC4)nc1 (single isomer, unassigned) [Example 577] | > 10 µM | 0.873 µM |  | 
14 | Nc1nc2ccc(C(=O)N3CCOC[C@H]3c3cccc(Cl)c3)cc2c2c1COC2 (single isomer, unassigned) [Example 578] | > 10 µM | > 1 µM |  | 
15 | Nc1nc2ccc(C(=O)N3CCOC[C@@H]3c3cccc(Cl)c3)cc2c2c1COC2 (single isomer, unassigned) [Example 579] | 7.57 µM | 0.182 µM |  | 
16 | Nc1nc2ccc(C(=O)N3CCOC[C@H]3c3ccc(Cl)cc3)cc2c2c1COC2 (single isomer, unassigned) [Example 580] | > 10 µM | > 1 µM |  | 
17 | Nc1nc2ccc(C(=O)N3CCOC[C@@H]3c3ccc(Cl)cc3)cc2c2c1COC2 (single isomer, unassigned) [Example 581] | 6.57 µM | 0.183 µM |  | 
18 | C[C@H]1COC[C@@H](c2ccc(C(F)(F)F)cn2)N1C(=O)c1ccc2nc(N)c3c(c2c1)COC3 (single isomer, unassigned) [Example 582] | > 10 µM | > 1 µM |  | 

Row | SMILES | IC50 (HCT116 WT cells; Homo sapiens, HCT-116, 144 h) | IC50 (HCT116 MTAP null cells; HCT116-MTAP null, 144 h) | IC50 (HCT116 WT cells) | IC50 (HCT116 MTAP null cells)
19 | CC1COC[C@H](c2ccc(C(F)(F)F)cn2)N1C(=O)c1ccc2nc(N)c3c(c2c1)COC3 (single isomer, unassigned) [Example 583] | 0.616 µM | 0.017 µM |  | 
20 | Cn1ncc2c3cc(C(=O)N4CCOC[C@@H]4c4ccc(C(F)(F)F)cc4)ccc3nc(N)c21 (single isomer, unassigned) [Example 584] | 11.7 µM | 0.236 µM |  | 
21 | C[C@@H]1CN(C(=O)c2ccc3nc(N)c4c(c3c2)COC4)[C@@H](c2ccc(OC(F)(F)F)cc2)CO1 (single isomer, unassigned) [Example 585] | > 10 µM | > 1 µM |  | 
22 | C[C@H]1CN(C(=O)c2ccc3nc(N)c4c(c3c2)COC4)[C@H](c2ccc(OC(F)(F)F)cc2)CO1 (single isomer, unassigned) [Example 586] | 2.92 µM | 0.082 µM |  | 
23 | C[C@H]1COC[C@@H](c2ccc(OC(F)(F)F)cc2)N1C(=O)c1ccc2nc(N)c3c(c2c1)COC3 (single isomer, unassigned) [Example 587] | > 10 µM | > 1 µM |  | 
24 | C[C@@H]1COC[C@H](c2ccc(OC(F)(F)F)cc2)N1C(=O)c1ccc2nc(N)c3c(c2c1)COC3 (single isomer, unassigned) [Example 588] | 0.466 µM | 0.014 µM |  | 
25 | CC(C)(C)OC(=O)N1CCN(C(=O)c2cc3c4c(c(N)nc3cn2)COC4)[C@@H](c2ccc(C(F)(F)F)cc2)C1 (single isomer, unassigned) [Example 589] |  |  | > 10 µM | 5.1 µM
26 | CC(C)(C)OC(=O)N1CCN(C(=O)c2cc3c4c(c(N)nc3cn2)COC4)[C@H](c2ccc(C(F)(F)F)cc2)C1 (single isomer, unassigned) [Example 590] |  |  | 1.8 µM | 0.056 µM
27 | Nc1nc2ccc(C(=O)N3CCOC[C@H]3c3ccc(OC(F)(F)F)nc3)cc2c2c1COC2 (single isomer, unassigned) [Example 591] | > 10 µM | 6.16 µM |  | 
28 | Nc1nc2ccc(C(=O)N3CCOC[C@@H]3c3ccc(OC(F)(F)F)nc3)cc2c2c1COC2 (single isomer, unassigned) [Example 592] | 8.9 µM | 0.145 µM |  | 
29 | Nc1nc2ccc(C(=O)N3CCOC[C@@H]3c3ccc(C(F)(F)F)nn3)cc2c2c1COC2 (single isomer, unassigned) [Example 593] | > 10 µM | 0.936 µM |  | 
30 | Nc1nc2cnc(C(=O)N3CCSC[C@@H]3c3ccc(C(F)(F)F)cc3)cc2c2c1COC2 (single isomer, unassigned) [Example 595, (4-amino-1,3-dihydrofuro[3,4-c][1,7]naphthyridin-8-yl)((3S)-3-(4-(trifluoromethyl)phenyl)-4-thiomorpholinyl)methanone or (4-amino-1,3-dihydrofuro[3,4-c][1,7]naphthyridin-8-yl)((3R)-3-(4-(trifluoromethyl)phenyl)-4-thiomorpholinyl)methanone] | 8.01 µM | 0.138 µM |  | 
31 | Nc1nc2cnc(C(=O)N3CCNC[C@@H]3c3ccc(C(F)(F)F)cc3)cc2c2c1COC2 (single isomer, unassigned) [Example 596, (4-amino-1,3-dihydrofuro[3,4-c][1,7]naphthyridin-8-yl)((2S)-2-(4-(trifluoromethyl)phenyl)-1-piperazinyl)methanone or (4-amino-1,3-dihydrofuro[3,4-c][1,7]naphthyridin-8-yl)((2R)-2-(4-(trifluoromethyl)phenyl)-1-piperazinyl)methanone] | > 10 µM | 0.58 µM |  | 
32 | Nc1nc2cnc(C(=O)N3CCCOC[C@@H]3c3ccc(C(F)(F)F)cc3)cc2c2c1COC2 (single isomer, unassigned) [Example 597, (4-amino-1,3-dihydrofuro[3,4-c][1,7]naphthyridin-8-yl)((3S)-3-(4-(trifluoromethyl)phenyl)-1,4-oxazepan-4-yl)methanone or (4-amino-1,3-dihydrofuro[3,4-c][1,7]naphthyridin-8-yl)((3R)-3-(4-(trifluoromethyl)phenyl)-1,4-oxazepan-4-yl)methanone] | > 10 µM | 0.866 µM |  | 
33 | Nc1nc2cnc(C(=O)N3CCC(F)(F)C[C@@H]3c3ccc(C(F)(F)F)cc3)cc2c2c1COC2 (single isomer, unassigned) [Example 598] | > 10 µM | 0.807 µM |  | 
34 | Nc1nc2cnc(C(=O)N3CCC(F)(F)C[C@H]3c3ccc(C(F)(F)F)cc3)cc2c2c1COC2 (single isomer, unassigned) [Example 599] | > 10 µM | > 10 µM |  | 
35 | Nc1nc2cnc(C(=O)N3CCC(F)(F)C[C@@H]3c3ccc(OC(F)(F)F)cc3)cc2c2c1COC2 (single isomer, unassigned) [Example 600] | > 10 µM | 0.921 µM |  | 
36 | Nc1nc2cnc(C(=O)N3CCC(F)(F)C[C@H]3c3ccc(OC(F)(F)F)cc3)cc2c2c1COC2 (single isomer, unassigned) [Example 601] | > 10 µM | > 10 µM |  | 

Reference: patent US11845760B2, “PRMT5 inhibitors” (AMGEN INC., priority 2020, dated 2023)
